# Experimental data as given in patent US20260248722A1, “METHOD FOR CARTILAGE REGENERATION AND REGROWTH FOLLOWING INJURY” (ELUCIDERM INC., priority 2021, published 2026).
# Experiments:
# [1] = tested on: 2 mm biopsy punch wound in the center of the cartilaginous region of each ear; assay: Cartilage regrowth in mouse ears after 2 mm biopsy punch wound (Example 2); assay type: in vivo, C57Bl/6J mice; settings: XAV939 in DMSO every day for 30 days
# Source text: C57Bl/6J mice were purchased from The Jackson Laboratory (Bar Harbor, ME, USA) and maintained by PPY. C57Bl/6J mice (at least 3 months of age) were anesthetized with 3-5% isoflurane in O2 administered using Tabletop Laboratory Animal Anesthesia System (VetEquip Inc., Pleasanton, CA, USA). A 2 mm biopsy punch wound was made in the center of the cartilaginous region of each ear using a disposable biopsy punch (Acuderm Inc., Fort Lauderdale, FL, USA) as described previously (Rai, M. F. et al, 2021, Arthritis Rheum., 64:2300-2310). […] In order to quantify closure of the wounds, ears were excised following mouse sacrifice, fixed and placed on microscope slides for examination by way of the digital camera being affixed to a Micromaster Inverted microscope (Thermo Fisher Scientific, Waltham, MA, USA). […] Sections of the tissue were then stained with Trichome blues, imaged and analyzed by way of an Olympus DP71 microscope camera (Olympus America, Center Valley, PA, USA). […] For quantification of wound closure, ears were excised after the mice were sacrificed, placed on microscope slides (Denville Scientific, South Plainfield, NJ, USA) and imaged using Nikon Coolpix 8700 affixed to Micromaster Inverted microscope (Thermo Fisher Scientific, Waltham, MA, USA). […]
# [2] = cited from earlier work
# ear punch wound = settings: topical application, dissolved in DMSO; cited from earlier work
# [3] = tested on: 2 mm biopsy punch wound in the center of the cartilaginous region; settings: XAV939 dissolved in DMSO; cited from earlier work
# CRE, F-κB, or TGF-β = settings: cited from earlier work
smiles,measurement,setting,value
"Oc1nc(-c2ccc(C(F)(F)F)cc2)nc2c1CSCC2 [XAV939, 3,5,7,8-Tetrahydro-2-[4-(trifluoromethyl)phenyl]-4H-thiopyrano[4,3-d]pyrimidin-4-one]","nature and character of the cartilage regrowth in the wounds, compared to DMSO control",[1],improved
same,aqueous solubility,[2],< 1 µg/mL
same,fibrosis (scarring),ear punch wound,reduced fibrosis
same,rate of wound closure,ear punch wound,significantly increased
same,cartilage regeneration and healing following acute injury,[3],increased cartilage regeneration and healing
same,"effect on CRE, F-κB, or TGF-β","CRE, F-κB, or TGF-β",does not affect
